#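 How tested: cells in 96-well plates exposed to compound for 48 hours at five concentrations. GI50: concentration for 50% inhibition of growth. The concentration for full growth arrest is given as TGI.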
# System: MDA-MB-468 breast
# Assay: inhibition of tumour cell growth, NCI panel, 48 h
Structure (SMILES),GI50 [µM],TGI [µM]
C=C1SC(=Nc2c(C)cc(C)cc2C)N(C(=O)c2sc3ccccc3c2Cl)C12CCCCC2,> 100,> 100
O=C(Nc1ccccc1)Nc1nc2ccc([N+](=O)[O-])cc2s1,0.755,4.45
Clc1ccc(N2N=C(c3cccc(Nc4ccncc4)c3)CC2c2ccc3c(c2)OCO3)cc1 (stereo not drawn),1.59,3.08
O=C(/C=C/C12c3ccccc3C(c3ccccc31)C1C(=O)N(c3ccccc3)C(=O)C12)c1ccccc1 (stereo not drawn),1.87,7.71
Cc1c(S(C)(=O)=O)c(-c2cc(F)cc(N3CCN(c4ccc(NS(=O)(=O)c5ccc(N[C@H](CCN6CCC(C(=O)OCCCP(=O)(O)O)CC6)CSc6ccccc6)c(S(=O)(=O)C(F)(F)F)c5)cc4)CC3)c2)c(-c2ccc(Cl)cc2)n1C(C)C,> 100,> 100
COc1ccccc1/C=C/[N+](=O)[O-],1.65,3.6
O=Nc1c(-c2c(O)[nH]c3ccc([N+](=O)[O-])cc23)[nH]c2ccc(O)cc12,0.359,2.85
CC(C)CNCC(O)COc1ccc(C(C)(C)c2ccc(OCC(O)CNCC(C)C)cc2)cc1 (stereo not drawn),2.18,4.91
CCOC(=O)C1(Br)C(c2ccccc2)NC(=O)NC1(C)Br (stereo not drawn),24,70.5
COc1ccc2c(c1)c(CC(=O)[Se]CC#N)c(C)n2C(=O)c1ccc(Cl)cc1,1.2,3.2
CCN(CC)CCNc1ccc([N+](=O)[O-])c2sc3ccccc3c(=O)c12,1.45,5.07
COc1cc2c(c(OC)c1OC)-c1ccc(N)c(=O)cc1[C@@H](NC(C)=O)CC2,< 0.01,
Oc1ccc(C(c2ccc(O)cc2)c2ccc(Cl)cn2)cc1,0.116,0.577
CCc1n(Cc2ccc3ccccc3n2)cc[n+]1Cc1ccc2ccccc2n1,,0.0994
FC(F)(F)c1cc(-c2nnc3n2N=C(N2CCCC2)CS3)cc(C(F)(F)F)c1,32,> 50
CN1CCN(c2ccc(NC(=O)c3nc4ccc5[nH]ncc5c4c4c3CCCC4)cc2C(F)(F)F)CC1,0.859,1.98
O=[N+]([O-])c1ccc(S(=O)Cc2ccccc2)c([N+](=O)[O-])c1 (stereo not drawn),1.7,3.13
Cc1ccc(/C(=N\N=C(N)N)c2ccccc2)cc1,0.426,5.83
CCn1c(C(=O)N(C2CC2)C2CC2)cc2c3c(ncn3C)c(Nc3cc(C)n(C)n3)nc21,> 100,> 100
O=C1C(c2c[nH]c3ccccc23)=C(c2c[nH]c3ccccc23)C(=O)N1O,> 25,> 25
Cc1cc(/C=C\c2ccc3ccccc3[n+]2C)c(O)c2ncccc12,0.316,2.23
CCCCCCCNc1nc(C(=O)OCC)ncc1-c1ccc(C(F)(F)F)cc1,23.4,93.1
CC1(C)CC[C@H](Nc2ncc(C(F)(F)F)c(-c3c[nH]c4c(P(C)(C)=O)c(C#N)ccc34)n2)CN1,1.22,5.11
CCCc1c(CC)c(=N)c2ccccc2n1C,3.22,48.7
CC(=O)N(O)CCCCCNC(=O)CCC(=O)N(O)CCCCCNC(=O)CCC(=O)N(O)CCCCCN(CCCCCCCCCC[P+](c1ccccc1)(c1ccccc1)c1ccccc1)CCCCCCCCCC[P+](c1ccccc1)(c1ccccc1)c1ccccc1,1.68,5.41
